Experimental data taken from US9862746B2, “Compositions and methods relating to hindering DOT1L recruitment by MLL-fusion proteins” (The Regents of the University of Michigan, priority 2013, dated 2018).
Where a SMILES comes first, the peptide text is derived from it. [ ]: non-standard residue; d: D form. The star is where a group is joined. 5FAM = O=C1OC2(c3ccc(O)cc3Oc3cc(O)ccc32)c2ccc(C(=O)*)cc21; βAla = NCCC(=O)O

Biological target: T1, ENL L550E (Homo sapiens, UniProt Q03111, L550E)
T1 construct: MBP-ENL (489-559) L550E; made in house; host or cells: Escherichia coli BL21 (DE3)
T1 sequence (Q03111 489-559 L550E): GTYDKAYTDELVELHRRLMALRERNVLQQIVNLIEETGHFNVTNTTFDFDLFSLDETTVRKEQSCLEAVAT
Test: FP saturation binding of Flu-DOT1L 10 mer to mutated ENL
Procedure: To further map and determined the residues in C-terminal domain of ENL that are essential for the interaction with DOT1L (so called “hot-spots”), an ENL mutant, L550E (FIG. 7A), was prepared which was reported to block the transforming capacity of MLL-ENL fusion protein (see, e.g., Yokoyama, A., et al., (2010) Cancer cell 17, 198-212).
Fluorescence polarization (FP) assay—FP experiments were performed in 96-well, black, round-bottom plates (Corning) using the plate reader (Biotek H1 hybrid). Fluorescein tagged DOT1L 10 mer peptide (Flu-DOT1L) was used as a fluorescent probe in the FP based binding assays. […] The plate was mixed on a shaker and incubated at room temperature to reach equilibrium. The polarization values in milli-polarization units (mP) were measured at an excitation wavelength at 485 nm and an emission wavelength at 530 nm. Polarization data were analyzed using GraphPad Prism 5.0 by non-linear fitting with a one-site binding model.

For `CC[C@H](C)[C@H](NC(=O)[C@@H]1CCCN1C(=O)[C@H](CC(C)C)NC(=O)CCNC(=O)CCNC(=O)[C@H](CCCCNC(=O)c1ccc2c(c1)C(=O)OC21c2ccc(O)cc2Oc2cc(O)ccc21)NC(C)=O)C(=O)N[C@@H](CO)C(=O)N[C@H](C(=O)N1CCC[C@H]1C(=O)N[C@@H](CC(C)C)C(=O)N[C@@H](CO)C(=O)N[C@H](C(=O)N[C@H](C(N)=O)C(C)C)[C@@H](C)O)[C@@H](C)CC` [fluorescent labeled DOT1L 10-mer peptide] (Ac-K(5FAM)[βAla][βAla]LPISIPLSTV-NH2), the “binding to ENL L550E mutant protein” value was “did not show binding”.
